This note sets out measurements from patent US8680058B2, “Selectively targeted antimicrobial peptides and the use thereof” (priority 2006, dated 2014).

For experiment [1], the system named is P. aeruginosa ATCC 15692. The experiment is described as follows: Time-kill (killing kinetics), P. aeruginosa in LB with 30% mouse serum. In kind it is cell-based, Pseudomonas aeruginosa. To be noted: 10 μM, 1 min to 2 h. The method, then: Time-Kill (killing kinetics) experiments were performed essentially as described previously (Eckert et al., 2006). Briefly, P. aeruginosa were grown to log phase and diluted to ˜1×10^5 cfu/mL (moderate density planktonic cultures) in LB with 30% mouse serum (MP Biomedicals) prior to the addition of 10 μM tobramycin, G10 or G10KHc to the cell suspensions. At each time point, 10 μL of the culture was removed and P. aeruginosa cells rescued by dilution in 500 μL LB and kept on ice until plating. Surviving cfu/mL were quantitated after plating on LB agar and incubating overnight at 37° C. under aerobic conditions.

The next experiment relates to P. aeruginosa. The experiment is described as follows: microbe, parasite or virus in culture. Type of experiment: cell-based, Pseudomonas aeruginosa. The conditions noted are these: for MIC: Pseudomonas aeruginosa. On the procedure: 2.3 Antimicrobial Activities. The general antimicrobial activities of G10KHc, G10, and tobramycin against clinical isolates of P. aeruginosa were evaluated by minimum inhibitory concentration (MIC) assay as previously described (Eckert et al., 2006) and shown in Table 5. MICs are reported in μM, though for familiarity, 1 μM tobramycin=0.468 μg/mL. P. aeruginosa were grown to log phase and adjusted to ˜1×10^5 cfu/mL in Mueller-Hinton (MH) broth and added to 96-well plates. Two-fold serial dilutions of peptide were then added to bacteria and the plates incubated for 18-24 hours at 37° C. MIC was determined as the concentration of peptide present in the last clear well (no growth). […] In contrast to tobramycin, G10KHc was also effective against aminoglycoside and multiple-antibiotic resistant P. aeruginosa isolated from CF patients (AGR10, MR15). Additionally, as mucoid P. aeruginosa are often associated with reduced susceptibility to antimicrobial agents, we were encouraged to find that G10KHc was active against one such strain, PDO300.

Experiment [2] has as its system P. aeruginosa ATCC 15692. The experiment is described as follows: Time-kill against high-density planktonic P. aeruginosa. In kind it is cell-based, Pseudomonas aeruginosa. The method, then: For evaluation of enhanced activity between G10KHc and tobramycin against high density planktonic cultures, ATCC 15692 were grown overnight were adjusted to ˜1×10^8 cfu/mL in ddH2O (pH 7.4) and exposed to 5 μM tobramycin, 5 μM G10KHc or a combination of both agents (a combination of 5 μM tobramycin (2.34 μg/mL) and 5 μM G10KHc or G10). 10 μL of the treated cultures was rescued by dilution after 24 h and the surviving cfu/mL plated on LB and counted after growth on LB agar.

For a further experiment, the system named is P. aeruginosa biofilms. In words: Rotating-disk biofilm reactor, P. aeruginosa biofilm killing. Type of experiment: cell-based, Pseudomonas aeruginosa. To be noted: 100 μg/mL alone, 4 h or 24 h.
The next experiment relates to S. mutans biofilms. The experiment is described as follows: Binding of fluorescently labeled genome-derived peptides to S. mutans biofilms. The arrangement: species or system Streptococcus mutans. To be noted: fluorescent label. An excerpt:
The targeting peptide 1903 was obtained by scanning the genomic sequence of S. mutans UA140. The predicted open reading frames (ORFs) of the publicly-available genome were examined and those ORFs that encoded for proteins under 50 amino acids were noted and re-examined after scanning the entire genome. A number of peptides predicted to be encoded by these ORFs were selected, synthesized with fluorescent labels, tested for binding to S. mutans biofilms.

Converted amounts (≈) assume the structure as drawn. No end group written: not given here.

Protocol for P. aeruginosa biofilms: In this experiment, a rotating-disk biofilm reactor system was used for generating quantitative data on biofilm susceptibility to tobramycin, G10 and G10KHc. The system consisted of a reactor vessel containing 250 mL of diluted trypticase-soy broth (TSB) (1:100) medium. Reactors were inoculated with overnight cultures (1%, v/v). After static overnight growth in TSB, a flow of fresh medium was initiated (dilution rate, 0.7 h^−1). After 24 h in a flow of medium, the polycarbonate chips with attached biofilm bacteria were aseptically removed from the spinning disk and washed three times in ddH2O (pH 7.4) and incubated in 1 mL ddH2O. G10 (100 μg/mL), G10KHc (100 μg/mL), tobramycin (100 μg/mL), or a combination of the two was added as indicated. The chips were then incubated for 4 or 24 h in 24-well tissue culture plates (Falcon no. 353047; Becton Dickinson Labware, Franklin Lakes, N.J.). To estimate the number of viable P. aeruginosa remaining, the disks were placed in 1 mL PBS and the cells were dispersed using a tissue homogenizer (Brinkmann Instruments, Westbury, N.Y.) and the total cfu per chip was determined by serial dilution and plating on LB agar.

As to “KNLRRIIRKGIHIIKKYG [novispirin G10, KNLRRIIRKGIHIIKKYG]”, in the experiment with P. aeruginosa ATCC 15692 [1], the “killing kinetics (in words)” value is given as “ineffective”. In the experiment with P. aeruginosa, the MIC range lay in the range of 10 to 60 µM and the “mean MIC” value came out at 23.4 µM.
In the case of `NC[C@H]1O[C@H](O[C@H]2[C@H](O)[C@@H](O[C@H]3O[C@H](CO)[C@@H](O)[C@H](N)[C@H]3O)[C@H](N)C[C@@H]2N)[C@H](N)C[C@@H]1O` [tobramycin], the “improvement in bactericidal effect over 5 μM G10 or G10KHc” value in the experiment on P. aeruginosa ATCC 15692 [2] (5 μM (2.34 μg/mL), 24 hours, high-density planktonic cells) is 1-2 log10. The “surviving cfu/mL” value in the experiment with P. aeruginosa ATCC 15692 [2] (5 μM each agent, 24 h, 1×10^8 cfu/mL culture) is on record as 1×10^7 cfu/mL. Moreover, the MIC in the experiment on P. aeruginosa (ATCC9027, P. aeruginosa ATCC 9027) came to 2.12 µM (≈ 0.991 µg/mL); with P. aeruginosa (ATCC10145, P. aeruginosa ATCC 10145), 1.75 µM (≈ 0.818 µg/mL); in the experiment with P. aeruginosa (ATCC15692, P. aeruginosa ATCC 15692), 3.05 µM (≈ 1.43 µg/mL); against P. aeruginosa (ATCC27583, P. aeruginosa ATCC 27583), 1.75 µM (≈ 0.818 µg/mL); against P. aeruginosa (P. aeruginosa AGR10 (aminoglycoside resistant, CF isolate)) it was 55 µM (≈ 25.7 µg/mL); against P. aeruginosa (P. aeruginosa MR15 (multiple-antibiotic resistant, CF isolate)), 55 µM (≈ 25.7 µg/mL). Also, the MIC in the experiment with P. aeruginosa (P. aeruginosa PAK) amounted to 2.12 µM (≈ 0.991 µg/mL); in the experiment on P. aeruginosa (P. aeruginosa S40) it was 0.4 µM (≈ 0.187 µg/mL); against P. aeruginosa (P. aeruginosa S60), 0.4 µM (≈ 0.187 µg/mL); against P. aeruginosa (P. aeruginosa S100), 3.5 µM (≈ 1.64 µg/mL); against P. aeruginosa (PA14, P. aeruginosa PA14) it was 0.7 µM (≈ 0.327 µg/mL); in the experiment with P. aeruginosa (PAO1, P. aeruginosa PAO1) it was 2.5 µM (≈ 1.17 µg/mL). Besides, the “killing effect against P. aeruginosa biofilms” value with P. aeruginosa biofilms is “very limited killing effects”.
With “NIFEYFLE (synthetic targeting peptide 1903)”, the “binding to S. mutans” value with S. mutans biofilms is given as “showed the binding activity to S. mutans”.
